Results on one molecule are retold here after US9895363B2, “Methods for modulating function of proliferating cell nuclear antigen (PCNA) and treating cancer with PCNA-targeting compounds” (University of Cincinnati, priority 2010, dated 2018).

Each structure is given as a SMILES string. Read-outs that look alike come from different tables or passages of the source.

The term IC50 denotes the concentration that inhibits the measured activity by half.

Assay [1] concerns LNCaP cells. The assay can be described thus: FACS analysis, LNCaP. It is filed as cell-based, Human. The conditions noted are these: particularly at 10 μM; FIG. 16. As to the method: Fluorescence-activated cell sorting (FACS) analysis was performed on both PC-3 cells and LNCaP cells using PCNA-I1. Specifically, cells were treated with 1 or 10 μM PCNA-I1 and sampled for the flow cytometry analysis at 24 H, 48 H, and 72 H. Expression of DNA damage and apoptosis-related proteins in PC-3 cells and LNCaP cells was also determined. Cisplatin, a well-known drug that induces DNA damage and apoptosis, was included in the experiment. LNCaP cells were treated for 6 H, 12 H, or 18 H with 10 μM PCNA-I1, 10 μM cisplatin, or both.
For orientation: A flow cytometer gives signals particle by particle.

In assay [2] the test system is HUVEC (primary human umbilical endothelial cells). Briefly: Growth inhibition, HUVEC. The assay is classed as cell-based. The conditions noted are these: for IC50: HUVEC. As for the experimental part: (§1) Growth inhibitory effects of PCNA-I1 and PCNA-I2 were assessed in human cancer cell lines, mouse cancer cell lines, immortalized mouse cell lines, and human primary cell lines. Specifically, growth inhibitory effects of PCNA-I1 and PCNA-I2 were assessed using MTT staining in the following cells lines: 1) human cancer cell lines including LNCaP (androgen receptor […]), 22Rv1, DU-145, LAPC-4, and PC-3 (androgen receptor […]) prostate cancer cells; MCF-7 and T47D breast cancer cells; A375 and MDA-MB435 melanoma cells; 2) mouse cancer cell lines including TRAMP-C2RE3 prostate cancer cells, B16 and K1735 melanoma cells, UV2237 fibrosarcoma cells, and CT-26 colon cancer cells; 3) immortalized mouse lung cell lines and mouse endothelial cell lines; and 4) primary human cell lines including umbilical endothelial cells (HUVEC, PromoCell, Heidelberg, Germany), primary bone marrow mesenchymal stem cells (HuMSC, PromoCell), primary human mammary epithelial cells (HuBrEC, Lonza, Walkersville, Md.), primary human prostate epithelial cells (HuPrEC, Lonza), and primary mouse spleen lymphocytes (isolated in this laboratory), and primary mouse bone marrow stromal cells (isolated in this laboratory). PCNA-I1 and PCNA-I2 were either provided by the University of Cincinnati Drug Discovery Center (UC-DDC, Cincinnati, Ohio) or were purchased from Chembridge Co (San Diego, Calif.), ChemDiv (San Diego, Calif.), and/or Sigma-Aldrich (St Louis, Mo.).
Growth inhibitory effects of the compounds were assessed by MTT staining as described previously by Dong et al. in In Vitro Model for Intrinsic Drug Resistance: Effects of Protein Kinase C Activators on the Chemosensitivity of Cultured Human Colon Cancer Cells; Mol. Pharmacol. 1991; 39: 563-9. […]
IC50 values were derived from growth inhibition curves. […] Inhibition of cell growth was calculated using the formula: growth inhibition (%)=(1−A570 of treated/A570 of control)×100. […] The fluorescence intensity was measured at 530/580 (excitation/emission) in the FLUOstar Omega microplate reader (BMG LABTECH, Cary, N.C.). […]

In assay [3] the test system is TRAMP-C2RE3 prostate cancer cells. Briefly: Growth inhibition by MTT staining, TRAMP-C2RE3. The conditions noted are these: 96 h, Mouse, Prostate tumor cells, treated four days. It is filed as cell-based. As for the experimental part:
as §1, with “PCNA-I1 and PCNA-I2 were either provided by the University of Cincinnati Drug Discovery Center (UC-DDC, Cincinnati, Ohio) or were purchased from Chembridge Co (San Diego, Calif.), ChemDiv (San Diego, Calif.), and/or Sigma-Aldrich (St Louis, Mo.).” left out
(§2) IC50 values were derived from growth inhibition curves. […] Inhibition of cell growth was calculated using the formula: growth inhibition (%)=(1−A570 of treated/A570 of control)×100. […]

In assay [4] the test system is MCF-7 breast cancer cells. The assay can be described thus: Growth inhibition by MTT staining, MCF-7. To be noted: MCF7, 96 h, Human, tumor cells, treated four days. The assay is classed as cell-based. As to the method:
as §1, with “PCNA-I1 and PCNA-I2 were either provided by the University of Cincinnati Drug Discovery Center (UC-DDC, Cincinnati, Ohio) or were purchased from Chembridge Co (San Diego, Calif.), ChemDiv (San Diego, Calif.), and/or Sigma-Aldrich (St Louis, Mo.).” left out
as §2

Assay [5] deals with LNCaP prostate cancer cells. Briefly: Growth inhibition by MTT staining, LNCaP. It is filed as cell-based, Human. The conditions noted are these: 96 h, Table II, Human tumor cells, treated four days, mean of five to seven experiments, read-out: IC50 Values, LNCaP. As to the method: as §1
Growth inhibitory effects of the compounds were assessed by MTT staining as described previously by Dong et al. in In Vitro Model for Intrinsic Drug Resistance: Effects of Protein Kinase C Activators on the Chemosensitivity of Cultured Human Colon Cancer Cells; Mol. Pharmacol. 1991; 39: 563-9. Briefly, cells were cultured and treated in their respective media. Cells were plated into 96-well plates at 1000 to 5000 cells/well. After an overnight incubation, the cells were treated for four days with various concentrations (up to 10 μM) of PCNA-I1 or PCNA-I2. The live cells were stained with MTT and cells in exponential growth phase were harvested by a one to three minute treatment with a 0.25% trypsin-0.02% EDTA solution. Flasks were tapped to detach the cells, RPMI 1640-10% FBS was added, and the cell suspensions were gently agitated to produce single-cell suspensions. The cell suspensions were washed and resuspended in medium with supplements specified for different cells. Only suspensions of single cells with a viability exceeding 95% (ascertained by trypan blue exclusion) were used.
IC50 values were derived from growth inhibition curves. Data for tumor cells are a mean of five to seven experiments. Data for primary cells are a mean of three experiments. […] Inhibition of cell growth was calculated using the formula: growth inhibition (%)=(1−A570 of treated/A570 of control)×100. IC50 (the concentration that inhibited cell growth by 50%) values were also determined. For evaluation of lymphocyte growth in suspension, an Alamar blue assay was performed, wherein freshly prepared mouse spleen lymphocytes were stimulated for 72 H with 2 ug/mL concanavalin A (Sigma Chemicals, St. Louis, […].). During the last 24 H, 20 μl/well of Alamar blue (Invitrogen, Carlsbad, Calif.) was added. The fluorescence intensity was measured at 530/580 (excitation/emission) in the FLUOstar Omega microplate reader (BMG LABTECH, Cary, N.C.).
Growth inhibitory effects of PCNA-I3, PCNA-I4, PCNA-I6, PCNA-I7, PCNA-I8, PCNA-I9 and PCNA-I10 were assessed in human prostate cancer cell lines. Specifically, growth inhibitory effects of PCNA-I3, PCNA-I4, PCNA-I6, PCNA-I7, PCNA-I8, PCNA-I9 and PCNA-I10 were assessed using MTT staining in LNCaP and PC-3 cells. […]

For assay [6], the target named is T1, PCNA (Homo sapiens, UniProt P12004).
T1 construct: endogenous PCNA was knocked down with transfection of PCNA-specific siRNA; endogenous in cells; host or cells: PC-3
Briefly: PCNA trimer formation assay, PC-3 cell lysate. It is filed as biochemical. The conditions noted are these: PC-3 lysate, 1 μM or 10 μM, 3 H, SDS-PAGE; FIG. 9(A). As for the experimental part:
The effect of PCNA-I1, PCNA-I2, PCNA-I3, PCNA-I4, PCNA-I6, PCNA-I7, PCNA-I8, PCNA-I9, and PCNA-I10 on PCNA trimer formation was investigated by SDS-PAGE and immunoblotting. Specifically, a trimer formation assay was performed on both PC-3 cell lysates and purified recombinant protein. The trimer formation assay was performed on purified recombinant protein to determine whether the effects of PCNA compounds on the stable trimer formation required the participation of other cellular proteins.
Purified His-PCNA (0.1 μg/reaction) and PC-3 cell lysates (50 μg/reaction) were incubated for 3 H at room temperature in a reaction buffer (40 mM Tris-HCl, pH 7.5, 0.2 mg/mL BSA, 10 mM MgCl2, and 10% glycerol) in the absence or presence of DMSO (0.1% vehicle control) or PCNA-I1, PCNA-I2, PCNA-I3, PCNA-I4, PCNA-I6, PCNA-I7, PCNA-I8, PCNA-I9, or PCNA-I10 (1 μM or 10 μM). The reaction was stopped by addition of the SDS-PAGE sample buffer without a reducing agent. The samples were resolved in SDS-PAGE without boiling and analyzed by immunoblotting using PCNA antibody.

For assay [7], the system named is K1735 melanoma cells. The assay can be described thus: Growth inhibition by MTT staining, K1735. The assay is classed as cell-based. To be noted: 96 h, Mouse, treated four days. As to the method: as §1, with “PCNA-I1 and PCNA-I2 were either provided by the University of Cincinnati Drug Discovery Center (UC-DDC, Cincinnati, Ohio) or were purchased from Chembridge Co (San Diego, Calif.), ChemDiv (San Diego, Calif.), and/or Sigma-Aldrich (St Louis, Mo.).” left out
as §2

T1 sequence (P12004 whole entry): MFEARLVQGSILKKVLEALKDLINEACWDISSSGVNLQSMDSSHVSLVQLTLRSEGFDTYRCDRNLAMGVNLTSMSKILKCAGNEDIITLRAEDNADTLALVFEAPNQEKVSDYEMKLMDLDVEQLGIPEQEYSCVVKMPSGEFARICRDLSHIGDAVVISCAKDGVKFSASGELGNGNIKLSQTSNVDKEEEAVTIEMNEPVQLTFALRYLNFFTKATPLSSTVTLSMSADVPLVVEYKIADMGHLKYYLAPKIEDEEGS

For `Cc1ccsc1C(=O)N/N=C/c1ccc2ccccc2c1O` [PCNA-I1], the “Apoptosis, LNCaP (sub-G1 population)” value in assay [1] is “induced significant apoptosis”. For the same molecule, in assay [2] (FIG. 2(C)), the “Growth stimulation, HUVEC” value is listed as “Moderate growth stimulation”. The IC50 turned out to be 1540 nM in assay [2] (Human, Blood Vessel, normal cells, mean of three experiments, read-out: IC50 Values, HUVEC); 1540 nM in assay [2] (Homo sapiens, FIG. 2(C), read-out: IC50, HUVEC); 200 nM in assay [3]; 150 nM in assay [4]; 140 nM in assay [5]; 50 nM in assay [7]. The “Portion of PCNA in the trimer form” value in assay [6] is “significantly elevated”.
